Results taken from article PMC9653795, “Structure-Guide Design and Optimization of Potential Druglikeness Inhibitors for TGFβRI with the Pyrrolopyrimidine Scaffold” (Pharmaceuticals, 2022).

Molecular target: T1, TGFβRI (Homo sapiens, UniProt P36897)
T1 construct: gene TGFBR1
T1 sequence (P36897 34-503): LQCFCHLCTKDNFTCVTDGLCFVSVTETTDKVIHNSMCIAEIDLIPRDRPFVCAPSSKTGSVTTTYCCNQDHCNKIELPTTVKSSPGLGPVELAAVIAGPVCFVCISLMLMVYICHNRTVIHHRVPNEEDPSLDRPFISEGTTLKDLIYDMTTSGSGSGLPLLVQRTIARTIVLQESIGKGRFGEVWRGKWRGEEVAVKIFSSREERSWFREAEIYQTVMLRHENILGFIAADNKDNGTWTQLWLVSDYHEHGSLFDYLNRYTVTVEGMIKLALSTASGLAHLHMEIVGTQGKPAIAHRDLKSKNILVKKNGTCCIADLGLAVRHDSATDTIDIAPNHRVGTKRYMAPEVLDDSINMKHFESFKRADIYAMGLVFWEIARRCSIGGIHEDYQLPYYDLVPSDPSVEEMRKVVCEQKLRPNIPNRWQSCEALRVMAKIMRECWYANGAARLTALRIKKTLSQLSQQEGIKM
Assay: ADP-Glo kinase assay
Format: biochemical

- IC50: 10.8 µM
Structure (SMILES): CC(C)(O)CNc1nc(Nc2ccncc2F)nc(-c2cccc(C(F)(F)F)n2)n1 [W8, 1-((4-((3-Fluoropyridin-4-yl)Amino)-6-(6-(Trifluoromethyl)Pyridin-2-yl)-1,3,5-Triazin-2-yl)Amino)-2-Methylpropan-2-ol]
